SMILES strings stand for the structures. pIC50: −log10 of the molar value.

human TRPM8, sequence (Q7Z2W7 whole entry): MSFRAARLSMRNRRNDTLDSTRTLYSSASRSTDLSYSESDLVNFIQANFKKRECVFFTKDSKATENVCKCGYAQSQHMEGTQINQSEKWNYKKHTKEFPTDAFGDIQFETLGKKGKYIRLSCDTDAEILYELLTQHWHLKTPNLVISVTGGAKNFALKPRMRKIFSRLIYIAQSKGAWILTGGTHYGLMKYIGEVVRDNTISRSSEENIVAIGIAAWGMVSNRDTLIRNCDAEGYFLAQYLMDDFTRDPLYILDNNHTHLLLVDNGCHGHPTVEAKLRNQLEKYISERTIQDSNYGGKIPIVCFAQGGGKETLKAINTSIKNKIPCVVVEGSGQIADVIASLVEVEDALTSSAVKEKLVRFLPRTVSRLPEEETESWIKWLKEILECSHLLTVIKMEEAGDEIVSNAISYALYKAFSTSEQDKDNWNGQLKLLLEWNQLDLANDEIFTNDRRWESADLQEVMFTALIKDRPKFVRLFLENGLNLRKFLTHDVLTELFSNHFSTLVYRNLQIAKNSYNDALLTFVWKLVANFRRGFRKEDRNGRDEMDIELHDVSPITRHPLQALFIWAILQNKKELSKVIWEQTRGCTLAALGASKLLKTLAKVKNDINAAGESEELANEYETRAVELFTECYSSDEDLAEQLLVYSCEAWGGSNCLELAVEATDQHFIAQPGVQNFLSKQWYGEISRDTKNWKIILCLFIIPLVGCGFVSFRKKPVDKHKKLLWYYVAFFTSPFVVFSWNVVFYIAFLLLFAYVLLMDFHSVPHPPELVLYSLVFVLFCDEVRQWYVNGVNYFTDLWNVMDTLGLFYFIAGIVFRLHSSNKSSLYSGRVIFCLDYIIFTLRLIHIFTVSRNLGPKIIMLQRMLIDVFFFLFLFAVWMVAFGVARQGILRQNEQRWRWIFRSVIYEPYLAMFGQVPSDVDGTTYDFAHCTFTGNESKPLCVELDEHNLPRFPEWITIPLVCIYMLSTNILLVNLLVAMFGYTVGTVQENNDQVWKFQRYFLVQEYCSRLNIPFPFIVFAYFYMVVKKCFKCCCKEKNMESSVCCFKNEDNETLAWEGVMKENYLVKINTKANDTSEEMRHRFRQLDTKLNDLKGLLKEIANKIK

The experiment concerns the target human TRPM8 (Homo sapiens (Human), UniProt Q7Z2W7). Briefly: TRPM8 inhibition assay (menthol-induced calcium influx, FDSS). The format is cell-based. The note with it: HEK293 cells stably expressing human TRPM8; 100 μM menthol; Fura-2AM Ca2+ signal; read-out: TRPM8 Blocking Test (IC50). How it is done:
The functional activity of compounds was determined by measuring changes in intracellular calcium concentration using a Ca^2+ sensitive fluorescent dye. The changes in fluorescent signal were monitored by the cell imaging technology by Hamamatsu Photonics's Functional Drug Screening System (FDSS). […] HEK293 cells stably expressing human TRPM8 were grown in flasks. On assay day, the culture medium was removed, and cells were washed with phosphate-buffered saline (PBS) and harvested with PBS containing 2 mM ethylenediaminetetraacetic acid, disodium salt (EDTA, 2Na). […] Subsequently, suspended 20,000 to 50,000 cells per well were incubated with test compound (at varying concentrations) in each well for 20 min at 37° C. Changes in intracellular Ca^2+ evoked by 100 μM menthol were measured for 2 min using FDSS. IC50 vales were determined from four-point concentration-response studies. Curves were generated using the average of quadruplicate wells for each data point.
Take `Cn1ccc2c(Cl)cnc(N(Cc3ccc(OC(F)(F)F)cc3)S(=O)(=O)c3ccc(C(=O)O)cc3)c21` [Example 6, sodium 4-({(4-chloro-1-methyl-1H-pyrrolo[2,3-c]pyridin-7-yl)[4-(trifluoromethoxy)benzyl]amino}sulfonyl)benzoate]: the pIC50 was 7.66.

Take `Cc1c(N(Cc2ccc(-c3ccc(F)cc3)cc2)S(=O)(=O)c2ccc(C(=O)O)cc2)ncc2ccccc12` [Example 8, 4-{[[(4′-fluorobiphenyl-4-yl)methyl](4-methylisoquinolin-3-yl)amino]sulfonyl}benzoic acid]: the pIC50 is 7.59.

On to `CCOC(C)(c1ccc(CN(c2ncc3ccccc3c2C)S(=O)(=O)c2ccc(C(=O)O)cc2)cc1)C(F)(F)F` (stereo not drawn) [Example 14, 4-{[[4-(1-ethoxy-2,2,2-trifluoro-1-methylethyl)benzyl](4-methylisoquinolin-3-yl)amino]sulfonyl}benzoic acid], for which the pIC50 was 8.33.

Turning to `Cc1cc2ccccc2nc1N(Cc1ccc(OC(F)(F)F)cc1)S(=O)(=O)c1ccc(C(=O)O)cc1` [Example 17], the negative logarithm of the IC50 (pIC50) is 8.30.

For the compound `Cc1cc2ccccc2nc1N(Cc1ccc(F)c(C(F)(F)F)c1)S(=O)(=O)c1ccc(C(=O)O)cc1` [Example 20], the pIC50 was 7.92.

Regarding `Cc1c(N(Cc2ccc(C(C)(C)C)cc2)S(=O)(=O)c2ccc(C(=O)O)cc2)ncc2ccccc12` [Example 23], the pIC50 is 8.74.

With `Cc1c(N(Cc2ccc(CC3CC3)cc2)S(=O)(=O)c2ccc(C(=O)O)cc2)ncc2ccccc12` [Example 24], the pIC50 is 8.34.

For the compound `Cc1c(N(Cc2ccc(-c3ccccc3)cc2)S(=O)(=O)c2ccc(C(=O)O)cc2)ncc2ccccc12` [Example 27], the pIC50 is 7.59.

Turning to `Cc1c(N(Cc2ccc(Oc3ccccc3)cc2)S(=O)(=O)c2ccc(C(=O)O)cc2)ncc2ccccc12` [Example 28], the pIC50 is 7.80.

Regarding `Cc1c(N(Cc2cccc3ccccc23)S(=O)(=O)c2ccc(C(=O)O)cc2)ncc2ccccc12` [Example 31], the pIC50 was 7.19.

For `Cc1c(N(Cc2ccc3ccccc3c2)S(=O)(=O)c2ccc(C(=O)O)cc2)ncc2ccccc12` [Example 32], the pIC50 is 8.07.

In the case of `Cc1c(N(Cc2ccc(C3CC3)cc2)S(=O)(=O)c2ccc(C(=O)O)cc2)ncc2ccccc12` [Example 41], the negative-log IC50 (pIC50) is 7.92.

As to `Cc1c(N(Cc2ccc(OC3CC3)cc2)S(=O)(=O)c2ccc(C(=O)O)cc2)ncc2ccccc12` [Example 45], the pIC50 is 7.46.

For the compound `Cc1c(N(Cc2ccc(OC3CCCC3)cc2)S(=O)(=O)c2ccc(C(=O)O)cc2)ncc2ccccc12` [Example 46], the pIC50 is 7.77.

Consider `Cc1c(N(Cc2ccc3c(c2)CCCC3)S(=O)(=O)c2ccc(C(=O)O)cc2)ncc2ccccc12` [Example 56], for which the pIC50 is 8.33.

As for `Cc1c(N(Cc2ccc3c(c2)CCC3)S(=O)(=O)c2ccc(C(=O)O)cc2)ncc2ccccc12` [Example 60], the pIC50 is 8.09.

As for `Cc1c(N(Cc2ccc3c(c2)CCC3(C)C)S(=O)(=O)c2ccc(C(=O)O)cc2)ncc2ccccc12` [Example 61], the pIC50 is 8.89.

For `Cc1c(N(Cc2ccc3c(c2)CC(C)(C)C3)S(=O)(=O)c2ccc(C(=O)O)cc2)ncc2ccccc12` [Example 62], the pIC50 was 8.08.

For the compound `Cc1c(N(Cc2ccc(C(F)(F)F)cn2)S(=O)(=O)c2ccc(C(=O)O)cc2)ncc2ccccc12` [Example 66], the pIC50 is 7.42.

On to `Cc1c(N(Cc2ccc(-c3ccccc3)cn2)S(=O)(=O)c2ccc(C(=O)O)cc2)ncc2ccccc12` [Example 67], for which the pIC50 was 7.17.

Regarding `Cc1c(N(Cc2ccc(-c3ccccc3)nc2)S(=O)(=O)c2ccc(C(=O)O)cc2)ncc2ccccc12` [Example 70], the pIC50 is 7.02.

Consider `Cc1c(N(Cc2ccc3c(c2)CC(C)(C)O3)S(=O)(=O)c2ccc(C(=O)O)cc2)ncc2ccccc12` [Example 80], for which the pIC50 was 7.74.

As for `Cc1c(N(Cc2ccc3c(c2)OC(C)(C)C3)S(=O)(=O)c2ccc(C(=O)O)cc2)ncc2ccccc12` [Example 81], the pIC50 is 7.24.

In the case of `Cc1c(N(Cc2ccc3c(c2)COC3(C)C)S(=O)(=O)c2ccc(C(=O)O)cc2)ncc2ccccc12` [Example 83], the pIC50 is 8.00.

With `Cc1c(N(CC2CCN(c3ccccc3)CC2)S(=O)(=O)c2ccc(C(=O)O)cc2)ncc2ccccc12` [Example 85], the pIC50 was 7.10.

Take `Cc1c(N(Cc2ccc(-c3ccccc3F)cc2)S(=O)(=O)c2ccc(C(=O)O)cc2)ncc2ccccc12` [Example 88]: the pIC50 is 8.00.

For `Cc1c(N(Cc2ccc(-c3cccc(F)c3)cc2)S(=O)(=O)c2ccc(C(=O)O)cc2)ncc2ccccc12` [Example 89], the pIC50 is 7.82.

For the compound `COC(C)(c1ccc(CN(c2ncc3ccccc3c2C)S(=O)(=O)c2ccc(C(=O)O)cc2)cc1)C(F)(F)F` (stereo not drawn) [Example 96], the pIC50 is 8.33.

Take `CCCc1nc(N(Cc2ccc(OC(F)(F)F)cc2)S(=O)(=O)c2ccc(C(=O)O)cc2)c(C)c2ccccc12` [Example 97, 4-({(4-methyl-1-propylisoquinolin-3-yl)[4-(trifluoromethoxy)benzyl]amino}sulfonyl)benzoic acid]: the pIC50 was 7.96.

In the case of `Cc1c(N(Cc2ccc(OC(F)(F)F)cc2)S(=O)(=O)c2ccc(C(=O)O)cc2)nc(N2CCCC2)c2ccccc12` [Example 99, 4-({(4-methyl-1-pyrrolidin-1-ylisoquinolin-3-yl)[4-(trifluoromethoxy)benzyl]amino}sulfonyl)benzoic acid], the pIC50 is 7.54.

For the compound `Cc1c(N(Cc2ccc(OC(F)(F)F)cc2)S(=O)(=O)c2ccc(C(=O)O)cc2)nc(OC(C)C)c2ccccc12` [Example 100, 4-({(1-isopropoxy-4-methylisoquinolin-3-yl)[4-(trifluoromethoxy)benzyl]amino}sulfonyl)benzoic acid], the pIC50 is 7.68.

For the compound `O=C(O)c1ccc(S(=O)(=O)N(Cc2ccc(OC(F)(F)F)cc2)c2cc3c(Cl)cccc3cn2)cc1` [Example 102, 4-({(5-chloroisoquinolin-3-yl)[4-(trifluoromethoxy)benzyl]amino}sulfonyl)benzoic acid], the pIC50 was 6.94.

Turning to `O=C(O)c1ccc(S(=O)(=O)N(Cc2ccc(OC(F)(F)F)cc2)c2ncc3ccccc3c2C2CC2)cc1` [Example 104, 4-({(4-cyclopropylisoquinolin-3-yl)[4-(trifluoromethoxy)benzyl]amino}sulfonyl)benzoic acid], the pIC50 is 9.05.

Regarding `Cc1c(N(Cc2ccc(OC(F)(F)F)cc2)S(=O)(=O)c2ccc(C(=O)O)cc2)nc(C(F)(F)F)c2ccccc12` [Example 108, 4-({[4-methyl-1-(trifluoromethyl)isoquinolin-3-yl][4-(trifluoromethoxy)benzyl]amino}sulfonyl)benzoic acid], the pIC50 is 7.68.

In the case of `CC(C)c1nc(N(Cc2ccc(OC(F)(F)F)cc2)S(=O)(=O)c2ccc(C(=O)O)cc2)c(C(F)(F)F)c2ccccc12` [Example 110, 4-({[1-isopropyl-4-(trifluoromethyl)isoquinolin-3-yl][4-(trifluoromethoxy)benzyl]amino}sulfonyl)benzoic acid], the pIC50 is 8.13.

For the compound `CC(=O)c1c(N(Cc2ccc(OC(F)(F)F)cc2)S(=O)(=O)c2ccc(C(=O)O)cc2)ncc2ccccc12` [Example 112, 4-({(4-acetylisoquinolin-3-yl)[4-(trifluoromethoxy)benzyl]amino}sulfonyl)benzoic acid], the pIC50 was 7.85.

What is called pIC50 is the IC50 on a negative log10 scale, so that one unit is a factor of ten.

Source of the values: patent US8987445B2, “Sulfonamide compounds having TRPM8 antagonistic activity” (Mitsubishi Tanabe Pharma Corporation, priority 2011, dated 2015).
